Test results from patent US20230105212A1, “BIPHENYL DERIVATIVE INHIBITOR, PREPARATION METHOD THEREFOR AND USE THEREOF” (SHANGHAI HANSOH BIOMEDICAL CO., LTD., priority 2020, published 2023).
Read-outs that look alike come from different tables or passages of the source.

Assays:
[1] = test system: CHO-PDL1/Jurkat-PD1 cell pathway; experiment: Inhibition of CHO-PDL1/Jurkat-PD1 cell pathway (NFAT luciferase reporter); type: cell-based; conditions: for EC50: 6 hours incubation, luciferase signal; for maximal fold induction: relative to the signal value of the non-dosed group, read-out: Maximum induction fold
Procedure, shortened: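 CHO-K1 cells stably expressing PD-L1, plated overnight, then co-cultured with PD-1/NFAT-luc2 Jurkat cells plus compounds in RPMI 1640 with 2% FBS for 6 h at 37 °C. Luminescence read after One-Glo, 10 min at RT. EC50 fitted from the concentration–signal curve; maximum induction fold calculated relative to the non-dosed group.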

[2] = molecular target: T1, human PD-L1 protein (Homo sapiens, UniProt Q9NZQ7); experiment: Thermal shift: melting temperature of PD-L1 protein; type: binding; conditions: read-out: ΔTm (° C.)
T1 construct: purchased Acro Biosystems PD1-H5229
T1 sequence (Q9NZQ7 19-238 limits assumed): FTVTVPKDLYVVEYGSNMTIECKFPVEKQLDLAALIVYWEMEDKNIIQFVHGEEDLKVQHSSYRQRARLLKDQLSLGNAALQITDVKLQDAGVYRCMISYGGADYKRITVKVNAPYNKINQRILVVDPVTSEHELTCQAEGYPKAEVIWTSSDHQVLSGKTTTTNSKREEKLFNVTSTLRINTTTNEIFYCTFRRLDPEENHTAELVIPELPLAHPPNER
Procedure, shortened: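 Human PD-L1 at 2 μM final was tested in […], 150 mM NaCl with SYPRO Orange, heated 25→95 °C at 0.03 °C/s in a PCR melt-curve run. Tm was taken per treatment; ΔTm is the shift relative to DMSO vehicle.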

[3] = Plasma protein binding rate (equilibrium dialysis); type: in vitro ADME; conditions: mouse plasma, equilibrium dialysis 37° C. 5 hours
Protocol: Test Embodiment 8. Plasma Protein Binding Rate Experiment
The purpose of this experimental method was to detect the plasma protein binding of the embodiment compounds in plasma.
The frozen plasma was thawed at room temperature or in a water bath at 37° C., then centrifuged at 3500 rpm for 5 min, and the supernatant was taken.
Preparation of compound working solution: Stock solutions were diluted with DMSO to a final concentration of 1 mM.
2.5 μL of compound working solution was added to 497.5 μL of blank plasma to a final concentration of 5 μM, shaked and mixed well.
1) The equilibrium dialysis device was prepared, and the detection membrane device was put into the equilibrium dialysis 96-well plate;
2) 200 μL of the prepared plasma solution was added to the membrane, n=2;
3) another 5 μL of plasma solution was taken, diluted 10 times with 45 μL of blank plasma of the same species, and 200 μL of acetonitrile termination solution containing internal standard was added, and stored in a −20° C. refrigerator;
4) 350 μL of dialysate (100 mM phosphate buffer) was added outside the membrane;
5) the dialysis plate was sealed and incubated in a 37° C. water bath for 5 hours;
6) after dialysis, 5 μL was taken out from the sample hole in the membrane, and diluted 10 times with 45 μL of blank plasma of the same species; 50 μL of dialysate was taken out from the sample hole outside the membrane, and 200 μL of acetonitrile termination solution containing internal standard was added;
7) the supernatant was taken after sample centrifugation;

[4] = test system: MC38-hPDL1 cells; experiment: In vitro cytotoxicity on MC38-hPDL1 cells (CellTiter-Glo); type: cell-based, mouse; conditions: for MC38-hPDL1 inhibition rate (%): 72 hours; for IC50: Mus musculus, MC38-hPD-L1, 72 hours
Protocol: Test Embodiment 5. In Vitro Cytotoxicity of the Compounds of the Present Disclosure on NFAT-Luc2/PD1 Jurkat Cells and MC38-hPDL1 Cells
Experimental purpose: To test the in vitro cytotoxicity of compounds on NFAT-luc2/PD1 Jurkat cells and MC38-hPDL1 cells.
When the cells were cultured to an appropriate degree of confluency, the cells were collected, and the cells was adjusted in an appropriate cell concentration by complete medium, then the cell suspension was plated in a 96-well plate, 90 μL per well, and put in a 37° C., 5% CO2 incubator overnight; compound solutions of different concentrations were prepared by DMSO and medium, and a vehicle control was set; compound solutions were added to a 96-well plate, 10 μL per well, and put in a 37° C., 5% CO2 incubator and cultured for 72 hours. After that, CellTiter-Glo solution was added, the mixture was shaken and mixed evenly, incubated in the dark for 10 minutes, and a BioTek Synergy H1 microplate reader was used for reading.
Luminescence signal value was used to calculate the inhibition rate, and the concentration and inhibition rate were fitted by nonlinear regression curve using Graphpad Prism software to obtain IC50 values, as shown in the following table: […]

[5] = compound 10 μM, PD-L1 protein 2 μM, Tm minus DMSO vehicle control

fraction unbound at 5 h, 5 μM [3] | ΔTm at 10 µM [2, 5] [°C] | Structure (SMILES) | EC50 [1] [µM] | maximal fold induction [1] | ΔTm at 10 µM [2] [°C] | MC38-hPDL1 inhibition rate (%) [4] | IC50 [4] [µM]
0.0052 | 18 | COc1nc(-c2cccc(-c3cccc(NC(=O)c4nc5c(n4C)CCN(C)C5)c3Cl)c2Cl)ccc1CN[C@H]1CCOC[C@@H]1O (relative stereo) [Embodiment 175, N-(2,2′-Dichloro-3′-(5-((((3,4-trans)-3-hydroxytetrahydro-2H-pyran-4-yl)amino)methyl)-6-methoxypyridin-2-yl)-[1,1′-biphenyl]-3-yl)-1,5-dimethyl-4,5,6,7-tetrahydro-1H-imidazo[4,5-c]pyridine-2-carboxamide] | 0.086 | 3.6 |  |  | 
0.0033 | 17.9 | COc1nc(-c2cccc(-c3cccc(NC(=O)c4nc5c(n4C)CCN(C)C5)c3Cl)c2Cl)ccc1CNC1COC1 [Embodiment 114, N-(2,2′-Dichloro-3′-(6-methoxy-5-((oxetan-3-ylamino)methyl)pyridin-2-yl)-[1,1′-biphenyl]-3-yl)-1,5-dimethyl-4,5,6,7-tetrahydro-1H-imidazo[4,5-c]pyridine-2-carboxamide] |  |  |  | 14.0%^ | > 10
0.0181 | 16.8 | COc1nc(-c2cccc(-c3cccc(NC(=O)c4nc5c(n4C)CCN(C)C5)c3Cl)c2Cl)cnc1CN1CC2(C1)CN(C(C)=O)C2 [Embodiment 152, N-(3′-(5-((6-Acetyl-2,6-diazaspiro[3.3]heptan-2-yl)methyl)-6-methoxypyrazin-2-yl)-2,2′-dichloro-[1,1′-biphenyl]-3-yl)-1,5-dimethyl-4,5,6,7-tetrahydro-1H-imidazo[4,5-c]pyridine-2-carboxamide] | 0.066 | 3.4 |  | 15% | > 10
0.003 | 21.4 | COc1nc(-c2cccc(-c3cccc(NC(=O)c4nc5c(n4C)CCN(C)C5)c3Cl)c2Cl)ccc1CN1CC2(C1)CN(C(=O)C(C)C)C2 [Embodiment 186, N-(2,2′-Dichloro-3′-(5-((6-isobutyryl-2,6-diazaspiro[3.3]heptan-2-yl)methyl)-6-methoxypyridin-2-yl)-[1,1′-biphenyl]-3-yl)-1,5-dimethyl-4,5,6,7-tetrahydro-1H-imidazo[4,5-c]pyridine-2-carboxamide] | 0.061 | 3 |  |  | 
0.0044 | 20.6 | COc1nc(-c2cccc(-c3cccc(NC(=O)c4nc5c(n4C)CCN(C)C5)c3Cl)c2Cl)ccc1CN1CC(NC(C)=O)C1 [Embodiment 180, N-(3′-(5-((3-Acetylaminoazetidin-1-yl)methyl)-6-methoxypyridin-2-yl)-2,2′-dichloro-[1,1′-biphenyl]-3-yl)-1,5-dimethyl-4,5,6,7-tetrahydro-1H-imidazo[4,5-c]pyridine-2-carboxamide] | 0.047 | 3.1 |  |  | 

Structure (SMILES) | fraction unbound at 5 h, 5 μM [3] | ΔTm at 10 µM [2, 5] [°C] | EC50 [1] [µM] | maximal fold induction [1] | ΔTm at 10 µM [2] [°C] | MC38-hPDL1 inhibition rate (%) [4] | IC50 [4] [µM]
COc1nc(-c2cccc(-c3cccc(NC(=O)c4nc5c(n4C)CCN(C)C5)c3Cl)c2Cl)ccc1CN1CC2(C1)CN(C(C)=O)C2 [Embodiment 123, N-(3′-(5-((6-Acetyl-2,6-diazaspiro[3.3]heptan-2-yl)methyl)-6-methoxypyridin-2-yl)-2,2′-dichloro-[1,1′-biphenyl]-3-yl)-1,5-dimethyl-4,5,6,7-tetrahydro-1H-imidazo[4,5-c]pyridine-2-carboxamide] | 0.0095 |  | 0.027 | 3.4 | 16.5 |  | 
